Data: patent EP2236511A2, “LIGANDS OF ALPHA-ADRENOCEPTORS AND OF DOPAMINE, HISTAMINE, IMIDAZOLINE AND SEROTONIN RECEPTORS AND THE USE THEREOF” (priority 2007, dated 2009)

What was measured:
[1] = biological target: T1, recombinant human 5-HT6 receptor (Homo sapiens, UniProt P50406); assay: Radioligand binding to serotonin receptor 5-HT6 ([3H] Lysergic acid diethylamide, HeLa membranes); conditions: read-out: 5-HT6 % inhibition
T1 construct: expressed in transfected cells; host or cells: HeLa
From the text: Mol Pharmacol. 43:320-327, 1993]. […] Methiothepin is used as positive control.

male mice of BALB/c line [2] = assay: Passive Avoidance of mice in the Shuttle Chamber, memory disturbed by Scopolamine; type: in vivo; conditions: Scopolamine 0.3 mg/kg, injected 30 minutes before training; figures 1-3
Description: Example 14. […] A shuttle chamber (Ugo Basile, Italy) consisted of two sections was used. […] The sections were connected through a hole which could be overlapped by a vertical door. The floor was made of transverse metal bars on which DC current impulses could be fed. Experiments were carried out in aged male mice of BALB/c line weighing 20-24 grams.
Each group consisted of at least 8 animals. Animal was placed in light section, and latent period of the first entry into dark chamber was registered. Then the vertical door was closed and the animal was punished by 0.6 mA DC current for 3 seconds. After that it was taken back to its homecage. In 22-24 hours the same animal was placed again in light section of the shuttle chamber and latent period of its first entry into dark section, the total time of its stay in light section, and the number of entries into dark section, were registered. Each monitoring lasted for 5 minutes.
Testing was carried out during the day time in isolated laboratory using white noise at level of about 70 decibel above human hearing threshold.
Scopolamine causes the disturbance of training (memory loss) that results in […].

[3] = biological target: T2, recombinant human 5-HT2A receptor (Homo sapiens, UniProt P28223); assay: Radioligand binding to serotonin receptor 5-HT2A ([3H] Ketanserin, CHO-K1 membranes); conditions: 10 µM ligand
T2 construct: expressed in transfected cells; host or cells: CHO-K1
T2 sequence (P28223 whole entry): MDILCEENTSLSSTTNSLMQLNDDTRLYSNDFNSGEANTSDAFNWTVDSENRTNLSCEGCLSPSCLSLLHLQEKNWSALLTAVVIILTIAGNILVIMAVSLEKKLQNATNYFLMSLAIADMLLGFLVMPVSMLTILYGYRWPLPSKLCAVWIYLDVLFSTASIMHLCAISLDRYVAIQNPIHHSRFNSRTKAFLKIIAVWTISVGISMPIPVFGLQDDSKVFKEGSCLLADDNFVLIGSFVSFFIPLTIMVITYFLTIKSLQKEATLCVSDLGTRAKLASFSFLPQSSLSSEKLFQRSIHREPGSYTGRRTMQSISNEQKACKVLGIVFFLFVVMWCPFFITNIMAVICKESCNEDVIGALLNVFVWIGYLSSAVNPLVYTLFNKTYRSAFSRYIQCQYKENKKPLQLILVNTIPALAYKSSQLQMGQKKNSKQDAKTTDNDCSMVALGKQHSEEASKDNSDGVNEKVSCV
From the text: 9-C. […] J Neurochem. […] Ketanserin is used as positive control.

recombinant human 5-HT1A = biological target: T3, recombinant human 5-HT1A (Homo sapiens, UniProt P08908); assay: Radioligand binding to serotonin receptor 5-HT1A ([3H] 8-OH-DPAT, CHO membranes); conditions: read-out: 5-HT1A % inhibition
T3 construct: expressed in transfected cells; host or cells: CHO
T3 sequence (P08908 1-422): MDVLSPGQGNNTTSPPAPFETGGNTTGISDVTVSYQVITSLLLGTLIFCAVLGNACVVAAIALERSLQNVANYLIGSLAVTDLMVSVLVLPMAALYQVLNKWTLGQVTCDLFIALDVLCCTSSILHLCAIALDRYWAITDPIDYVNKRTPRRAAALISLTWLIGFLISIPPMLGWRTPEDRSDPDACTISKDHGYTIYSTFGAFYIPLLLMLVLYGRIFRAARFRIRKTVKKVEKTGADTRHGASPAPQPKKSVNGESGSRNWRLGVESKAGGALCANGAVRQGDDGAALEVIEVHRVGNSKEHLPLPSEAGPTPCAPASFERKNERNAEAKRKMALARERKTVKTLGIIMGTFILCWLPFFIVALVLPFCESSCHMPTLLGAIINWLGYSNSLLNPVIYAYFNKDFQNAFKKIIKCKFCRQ
From the text: J Pharmacol Exp Ther. 306(1): 301-309, 2003]. […] Metergoline is used as positive control.

[4] = biological target: T4, recombinant human 5-HT2B receptor (Homo sapiens, UniProt P41595); assay: Radioligand binding to serotonin receptor 5-HT2B ([3H] Lysergic acid diethylamide, CHO-K1 membranes); conditions: read-out: 5-HT2B % inhibition
T4 construct: expressed in transfected cells; host or cells: CHO-K1
T4 sequence (P41595 whole entry): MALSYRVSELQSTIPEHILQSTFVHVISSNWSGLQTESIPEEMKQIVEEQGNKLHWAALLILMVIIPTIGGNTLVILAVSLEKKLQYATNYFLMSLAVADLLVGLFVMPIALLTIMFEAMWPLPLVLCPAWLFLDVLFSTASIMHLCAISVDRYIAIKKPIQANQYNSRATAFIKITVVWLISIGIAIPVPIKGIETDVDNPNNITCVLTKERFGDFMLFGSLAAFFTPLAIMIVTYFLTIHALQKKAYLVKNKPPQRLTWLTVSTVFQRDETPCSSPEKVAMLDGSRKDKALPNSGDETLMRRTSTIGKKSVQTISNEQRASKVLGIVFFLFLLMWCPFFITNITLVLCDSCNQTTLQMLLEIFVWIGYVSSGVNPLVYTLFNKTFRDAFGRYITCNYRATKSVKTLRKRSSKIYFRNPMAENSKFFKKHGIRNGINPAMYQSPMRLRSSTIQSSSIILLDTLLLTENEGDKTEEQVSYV
Description: For this purpose membrane species are prepared from CHO-K1 cells comprising recombinant human 5-HT2B receptor by homogenization of recombinant cells in glass homogenizer with the subsequent separation of plasmatic membranes from cell nuclei, mitochondrias and cell wreckages by differential centrifugation. […] After incubation the samples are filtered in vacuo on glass-microfiber filters G/F (Millipor, USA), filters are washed three times with cold solution of medium and radioactivity is measured by scintillation counter MicroBeta 340 (Perkin Elmer, USA). […] Ketanserin is used as positive control. The tested compounds' binding to the receptor is determined by their ability to displace the radioligand and is expressed in percent of displacement (%I). Values of %I are calculated according to the following equation: %I = (TA-CA)/(TA-NA)*100, [formula] wherein: TA - is the overall radioactivity in the presence of radioligand only, CA - is the radioactivity in the presence of radioligand and tested compound and NA - is the radioactivity in the presence of radioligand and Serotonin (10 µM).

[5] = biological target: T5, serotonin receptor 5-HT1B (Rattus norvegicus, UniProt P28564); assay: Radioligand binding to serotonin receptor 5-HT1B ([125I] cyanopindolol, rat brain cortex membranes); conditions: read-out: 5-HT1B % inhibition
T5 construct: membrane species are prepared from rat brains (Wistar) by homogenization of species of rat brain-cortices; from tissue; host or cells: rat (Wistar) brain cortex
T5 sequence (P28564 whole entry): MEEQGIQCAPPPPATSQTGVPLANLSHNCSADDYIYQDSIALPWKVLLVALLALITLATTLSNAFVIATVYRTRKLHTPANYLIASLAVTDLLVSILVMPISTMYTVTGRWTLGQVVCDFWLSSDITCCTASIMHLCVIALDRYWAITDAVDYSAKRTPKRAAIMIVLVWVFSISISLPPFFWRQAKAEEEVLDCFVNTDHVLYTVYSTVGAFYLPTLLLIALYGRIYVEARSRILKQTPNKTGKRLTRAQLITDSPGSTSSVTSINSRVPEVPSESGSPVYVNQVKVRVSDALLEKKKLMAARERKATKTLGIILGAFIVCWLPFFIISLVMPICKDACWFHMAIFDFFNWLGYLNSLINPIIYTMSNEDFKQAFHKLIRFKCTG
From the text: Serotonin is used as positive control.

male mice of BALB/c line [6] = assay: Mice Behavior in the Elevated Plus Maze; type: in vivo; conditions: doses of 0,05 and 0,1 mg/kg
From the text: Example 16. […] The length of each arm of the maze was 30cm, width is 5cm, and height of the walls was 15cm. Two opposite arms were closed from both sides and end faces by transparent walls, the other two arms were lit and opened. A mouse was placed in the center of the maze and for the next five minutes the number of entries into opened and closed arms and the time spent in each type of arms was registered. […] The animals usually avoided opened arms (the preference index is between 0.2 and 0.3). Compounds with tranquilizing action increased this index up to 0.5-0.6 or even more and reduced the number of defecations without changing the overall motion activity of the mice (the total number of their entries to the arms).

mice [7] = assay: Mice Training in Morris Water Maze (Scopolamine); type: in vivo; conditions: unitary introduction of active ingredient; figures 10-13
Description: Example 17. Mice Training in Morris Water Maze. A round pool which was filled with water at 20-22°C was used. A round ceramic platform of 14cm height was placed in the pool. Animals's behavior was registered with automated computer videosystem in combination with software package of movement analysis Any-maze (Stoelting Co., US). Before testing mice suitable for training were selected. That was done by placing the platform 1cm above the water level and putting an animal on the platform for 20 seconds. Then the mouse was sunk into the water on the opposite side of the pool, allowed to find the platform and climbed it […] 60 seconds, where it was left for additional 20 seconds. After that the mouse was repeatedly immersed into water on the opposite side of the pool and allowed to look for platform. If it failed in finding the platform within 60 seconds the experimentator helped it to find the platform and climb it. If the mice could not find the platform itself in two consecutive attempts it was excluded from experiment. During the next two days the platform was placed 0.5 centimeter lower the water level. Every day the mice were given four attempts for finding the platform within 60 seconds. The time interval between the attempts was 20 seconds, during which the mice stayed on the platform. Every day before the first attempt mouse was placed on the platform for 20 seconds. The time needed for finding and climbing the platform was registered. The animals were sunk in water in 3 different places on the side of the pool opposite to platform. On each day of two-day testing 35-40 minutes before the beginning of training the mice were injected intraintestinally with physiological solution, Scopolamine or Scopolamine in combination with investigated compound. At least 8 animals were used in each group. On the third day the platform was removed and each animal was placed one time in the pool for a period of 60 seconds. The time each mouse spent in the area where the platform had been located during the previous days was registered. This time interval was regarded as a measure of effectiveness of training fulfilled during the previous two days. The testing was carried out during the day time in isolated laboratory using "white noise" at level of about 70 decibel above the human hearing threshold.

human D1 receptor = biological target: T6, human D1 receptor (Homo sapiens, UniProt P21728); assay: Radioligand binding to dopamine receptor D1 ([3H] SCH-23390, CHO membranes); conditions: read-out: Dopamine receptors, % inhibition D1
T6 construct: expressed in transfected cells; host or cells: CHO
T6 sequence (P21728 whole entry): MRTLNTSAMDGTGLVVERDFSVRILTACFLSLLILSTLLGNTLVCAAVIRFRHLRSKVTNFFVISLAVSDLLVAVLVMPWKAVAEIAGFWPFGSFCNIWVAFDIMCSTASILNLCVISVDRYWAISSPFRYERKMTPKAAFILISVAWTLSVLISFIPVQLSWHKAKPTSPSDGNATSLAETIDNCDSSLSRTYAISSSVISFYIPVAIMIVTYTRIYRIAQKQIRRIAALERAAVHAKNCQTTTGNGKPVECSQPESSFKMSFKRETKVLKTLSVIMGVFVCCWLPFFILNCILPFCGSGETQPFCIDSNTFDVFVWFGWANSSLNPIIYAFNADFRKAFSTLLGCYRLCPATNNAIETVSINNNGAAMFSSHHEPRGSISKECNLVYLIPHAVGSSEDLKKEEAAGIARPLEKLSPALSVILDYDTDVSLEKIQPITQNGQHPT
From the text: For this purpose sDNA of human D1 receptor is expressed in CHO cells, as it was described in [Dearry A, Gingrich JA, Falardeau P, Fremeau RT Jr, Bates MD and Caron MG. Molecular cloning and expression of the gene for a human D1 dopamine receptor. Nature. […] Nature.

human D3 receptor = biological target: T7, human D3 receptor (Homo sapiens, UniProt P35462); assay: Radioligand binding to dopamine receptor D3 ([3H] Spiperone, CHO membranes)
T7 construct: expressed in transfected cells; host or cells: CHO
T7 sequence (P35462 whole entry): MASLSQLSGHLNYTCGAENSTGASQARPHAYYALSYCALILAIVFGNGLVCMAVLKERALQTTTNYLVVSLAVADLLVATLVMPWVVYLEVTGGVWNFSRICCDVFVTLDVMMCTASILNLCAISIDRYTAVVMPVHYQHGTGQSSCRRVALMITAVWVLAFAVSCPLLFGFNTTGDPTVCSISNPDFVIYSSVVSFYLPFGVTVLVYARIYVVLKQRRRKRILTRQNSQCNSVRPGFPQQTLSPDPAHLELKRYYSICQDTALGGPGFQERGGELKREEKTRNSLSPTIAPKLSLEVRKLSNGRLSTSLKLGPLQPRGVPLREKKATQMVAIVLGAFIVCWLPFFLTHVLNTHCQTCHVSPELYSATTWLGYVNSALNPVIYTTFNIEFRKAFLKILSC
From the text: For this purpose sDNA of human D3 receptor is expressed in CHO cells, as it was described in [Sokoloff P, Giros B, Martres M-P, Bouthenet M-L and Schwartz J-C. Molecular cloning and characterization of novel dopamine receptor (D3) as target for neuroleptics. Nature. […] Molecular cloning and characterization of novel dopamine receptor (D3) as target for neuroleptics. Nature. […] Spiperone is used as positive control.

human D4.2 receptor = biological target: T8, human D4.2 receptor (Homo sapiens, UniProt P21917, DEL265-296); assay: Radioligand binding to dopamine receptor D4.2 ([3H] Spiperone, CHO-K1 membranes); conditions: read-out: Dopamine receptors, % inhibition D4.2
T8 construct: expressed in transfected cells; host or cells: CHO-K1
T8 sequence (P21917 with tags, fused parts or gaps DEL265-296): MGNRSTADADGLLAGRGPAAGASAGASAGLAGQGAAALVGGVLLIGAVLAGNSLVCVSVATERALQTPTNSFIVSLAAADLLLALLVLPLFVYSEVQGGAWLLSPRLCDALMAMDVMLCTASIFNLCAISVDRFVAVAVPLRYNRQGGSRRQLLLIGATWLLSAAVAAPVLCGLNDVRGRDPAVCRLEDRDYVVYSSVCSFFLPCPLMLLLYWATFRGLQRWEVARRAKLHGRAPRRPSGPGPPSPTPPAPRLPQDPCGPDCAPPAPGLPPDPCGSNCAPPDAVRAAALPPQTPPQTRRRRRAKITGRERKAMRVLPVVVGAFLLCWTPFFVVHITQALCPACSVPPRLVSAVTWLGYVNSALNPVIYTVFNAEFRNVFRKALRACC
Description: Screening of the disclosed compounds for potential ability to interact with dopamine receptor D4.2 is carried out by method of radioligand binding. […] From the cells transfected in this way membrane species are prepared by homogenization of these cells in glass homogenizer with the subsequent separation of plasmatic membranes from cell nuclei, mitochondrias and cell wreckages by differential centrifugation. […] After incubation samples are filtered in vacuo on glass-microfiber filters G/F (Millipor, USA), filters are washed three times with cold solution of medium and radioactivity is measured by scintillation counter MicroBeta 340 (Perkin Elmer, USA). Nonspecific binding which makes up 10% of the overall binding is determined by incubation of membrane species with radioligand in the presence of 10 µM of Haloperidol.
Spiperone is used as positive control. Tested compounds' binding to the receptor is determined by their ability to displace radioligand and expressed in percent of displacement (%I). Values of %I are calculated according to the following equation: %I = (TA-CA)/(TA-NA)*100, [formula] wherein: TA - is overall radioactivity in the presence of radioligand only, CA - is radioactivity in the presence of radioligand and tested compound and NA - is radioactivity in the presence of radioligand and Haloperidol (10 µM).

imidazoline receptor I2 = assay: Radioligand binding to imidazoline receptor I2 ([3H] Idazoxan, rat brain membranes); conditions: 10 µM ligand
Description: For this purpose membrane species are prepared from rat (Wistar) brain homogenates by homogenization of them in glass homogenizer with the subsequent separation of plasmatic membranes from cell nuclei, mitochondrias and cell wreckages by differential centrifugation. […] After incubation the samples are filtered in vacuo on glass-microfiber filters G/F (Millipor, USA), filters are washed three times with cold solution of medium and radioactivity is measured by scintillation counter MicroBeta 340 (Perkin Elmer, USA). […] Idazoxan is used as positive control.
The tested compounds' binding to the receptor is determined by their ability to displace the radioligand and expressed in percent of displacement (%I). Values of %I are calculated according to the following equation: %I = (TA-CA)/(TA-NA)*100, [formula] wherein: TA - is the overall radioactivity in the presence of radioligand only, CA - is the radioactivity in the presence of radioligand and tested compound and NA - is a radioactivity in the presence of radioligand and Idazoxan (1 µM).

mice [8] = assay: Tail suspension test; type: in vivo; conditions: dose of 0.05 mg/kg during 4 days; fig. 16
Description: Example 20. Mice behavior in tail suspension test. In the test a mouse was suspended by tail with a sticky tape on the holder over horizontal surface at a height of 40 cm, and during 3 minutes the total time of complete immobility was recorded. Automated computerized detection of motion with videosystem and Any-maze programm were used. After administration of ligand 1.1.2(1-2) (CD-008-0045) in dose of 0.05 mg/kg during 4 days the time of complete immobility of mouse was lowered almost by factor of 2.5 (fig.16), that testifies the cutting of period of depressively-like condition.

T1 sequence (P50406 whole entry): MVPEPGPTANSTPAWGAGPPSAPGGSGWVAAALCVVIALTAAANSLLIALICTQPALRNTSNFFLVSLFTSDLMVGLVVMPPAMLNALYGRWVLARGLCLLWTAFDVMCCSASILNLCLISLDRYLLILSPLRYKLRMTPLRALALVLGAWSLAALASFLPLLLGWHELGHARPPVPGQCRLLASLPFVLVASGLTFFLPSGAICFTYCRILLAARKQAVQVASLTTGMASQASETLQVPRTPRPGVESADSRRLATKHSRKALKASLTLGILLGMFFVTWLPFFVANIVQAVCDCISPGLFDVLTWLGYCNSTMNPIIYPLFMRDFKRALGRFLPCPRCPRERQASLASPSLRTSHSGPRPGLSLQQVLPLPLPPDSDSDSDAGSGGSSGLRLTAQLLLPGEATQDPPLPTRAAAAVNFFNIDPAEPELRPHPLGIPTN

Cc1ccc2c(c1)c1c(n2CCc2ccncc2)CCN(C)C1 [1.1.2(5-2)·2HCl]
inhibition at 10 µM [1]: 91% | enhancement of memory disturbed by Scopolamine (male mice of BALB/c line [2]): improve memory | inhibition at 10 µM [3]: 88% | inhibition at 10 µM (recombinant human 5-HT1A): 17% | inhibition at 10 µM [4]: 80% | inhibition at 10 µM [5]: 14%

Cc1ccc2c(c1)c1c(n2CCc2ccc(C)nc2)CCN(C)C1.Cl.Cl [1.1.2(4-2)]
Anxiolytic (tranquilizing) action (male mice of BALB/c line [6]): exhibit analogous action | enhancement of memory disturbed by Scopolamine (male mice of BALB/c line [2]): improve memory | memory disorders caused by Scopolamine (time spent in area of the platform) (mice [7]): decreasing memory disorders

Cc1ccc2c(c1)c1c(n2CCc2ccccc2)CCN(C)C1 [1.1.2(1-2) ·2HCl]
inhibition at 10 µM (human D1 receptor): 89% | IC50 (human D3 receptor): 0.256 µM | Ki (human D3 receptor; Receptor D3): 0.868 µM | nH (human D3 receptor; Receptor D3): 0.797 | inhibition at 10 µM (human D3 receptor; read-out: Dopamine receptors, % inhibition D3): 99% | inhibition at 10 µM (human D4.2 receptor): 103%

Cc1ccc2c(c1)[C@H]1CN(C)CCC[C@@H]1N2CCc1ccc(C)nc1 (relative stereo) [1.6.2(11)]
inhibition at 10 µM (human D4.2 receptor): 6% | % inhibition (imidazoline receptor I2): 83%

Cc1ccc2c(c1)c1c(n2CCc2ccccc2)CCN(C)C1 [1.1.2(1-2), 2,8-dimethyl-5-phenethyl-1,2,3,4-tetrahydro-1H-pyrido[4,3-b]indole]
enhancement of memory disturbed by Scopolamine (male mice of BALB/c line [2]): improve memory | memory disorders caused by Scopolamine (time spent in area of the platform) (mice [7]): decreasing memory disorders | time of complete immobility, lowered by factor (mice [8]): ~2.5

Cc1ccc2c(c1)c1c(n2CCc2ccncc2)CCCN(C)C1 [1.2.2(5-3)·2HCl]
memory disorders caused by Scopolamine (time spent in area of the platform) (mice [7]): decreasing memory disorders
